Measurements from US20050118099A1, “Thiol-mediated drug attachment to targeting peptides” (priority 2003, published 2005).
One block for each compound: values may come before it.

How the values were obtained:
[1] = following four administrations; prior studies; cited from earlier work
[2] = system: growth hormone; assay: Serum growth hormone levels (ELISA) in IMR-32 mouse xenograft model; type: in vivo; conditions: AE at 75% of the MTD, potential toxicity to the pituitary gland
Method: FIG. 4 is a line graph depicting growth hormone levels in an IMR-32 mouse xenograft model following administration of AE (◯), 1×CP1-FKMMAE (□), or 3×CP1-FKMMAE (⋄). The control sample depicts growth hormone levels in the absence of treatment (X). Arrows indicate the times of administration, as described in Example 5. Serum growth hormone levels were determined by ELISA to assess potential toxicity to the pituitary gland.
(§1) The tumoricidal effects of CP1-FKMMAE were evaluated in a mouse xenograft model. Tumors were established in nude mice by subcutaneous injection of IMR-32 cells. A multiple dose regimen was evaluated based on prior studies using AE, which determined a MTD following four administrations of 0.4 mg/kg. Due to limited availability, AE was used at 75% of the MTD. CP1-FKMMAE was administered at 1× and 3× molar equivalents of AE according to the same dosing schedule. Tumor volume, animal weight, and serum growth hormone levels were assessed for each treatment group.

[3] = Animal weight in IMR-32 mouse xenograft model; type: in vivo; conditions: AE at 75% of the MTD
Method: (§2) FIGS. 3A-3B are line graphs depicting tumor growth inhibition in an IMR-32 mouse xenograft model following administration of AE (◯), 1×CP1-FKMMAE (□), or 3×CP1-FKMMAE (⋄). The control sample depicts uninhibited tumor growth (X). Arrows indicate the times of administration, as described in Example 5.
as §1

[4] = system: IMR-32 cells; assay: Tumor growth inhibition in IMR-32 mouse xenograft model; type: in vivo; conditions: AE at 75% of the MTD, multiple dose regimen
Method: as §2, §1

[5] = target: human somatostatin receptor SSTR2 of IMR-32 human neuroblastoma cells (human) (UniProt P30874); assay: uptake of applied cpm by SSTR+ human cancer cells; competitor somatostatin at 1000X molar excess
[6] = target: human somatostatin receptor SSTR2 of IMR-32 human neuroblastoma cells (human) (UniProt P30874); assay: uptake of applied cpm by SSTR+ human cancer cells, 20-24 h at 37 C, gamma counting
[7] = target: human somatostatin receptor SSTR2 of IMR-32 human neuroblastoma cells (human) (UniProt P30874); assay: competition with Indium-111-octreotide on IMR-32 membrane extracts, filter assay, gamma counting

UniProt P30874, sequence (P30874 whole entry): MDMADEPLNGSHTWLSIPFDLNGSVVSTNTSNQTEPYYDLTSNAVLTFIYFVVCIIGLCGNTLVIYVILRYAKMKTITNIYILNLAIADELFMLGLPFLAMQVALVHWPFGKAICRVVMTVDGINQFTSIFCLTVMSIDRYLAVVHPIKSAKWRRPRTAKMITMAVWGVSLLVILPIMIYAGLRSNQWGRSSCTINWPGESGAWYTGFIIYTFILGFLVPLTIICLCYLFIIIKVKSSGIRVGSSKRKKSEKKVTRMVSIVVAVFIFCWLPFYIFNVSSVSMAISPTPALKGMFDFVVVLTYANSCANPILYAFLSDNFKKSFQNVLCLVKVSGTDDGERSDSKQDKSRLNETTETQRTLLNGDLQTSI

Compound: CC[C@H](C)[C@@H]([C@@H](CC(=O)N1CCC[C@H]1[C@H](OC)[C@@H](C)C(=O)N[C@H](C)[C@@H](O)c1ccccc1)OC)N(C)C(=O)[C@@H](NC(=O)[C@H](C(C)C)N(C)C)C(C)C [AE, Auristatin E]
MTD (maximal tolerable dose) [1]: 0.4 mg/kg
Serum growth hormone levels [2]: relative stability
Mean mouse weight [3]: slightly increased
Mean tumor volume [4]: reduction in mean tumor volume

Percentage (%) Uptake in the Presence of 1000X SST [5]: 0.1%
Percentage (%) Uptake [6]: 4.4%
Compound: Indium-111-octreotide (peptide)

IC50 [7]: 3 nM
Compound: octreotide (unlabeled) (peptide)
